The text below walks through data of patent US8802678B2, “Carbonylated (aza) cyclohexanes as dopamine D3 receptor ligands” (Bioprojet, priority 2006, dated 2014).

SMILES strings stand for the structures.

By melting point is commonly meant the temperature, or range, at which the solid turns liquid. For `O=C(COc1ccc(F)cc1)N[C@H]1CC[C@H](CCN2CCN(c3ccc(F)cc3F)CC2)CC1` [Example 385, N-(4-{2-[4-(2,4-Difluorophenyl)piperazin-1-yl]ethyl}cyclohexyl)-2-(4-fluorophenoxy)acetamide], the melting point was determined as 162 °C.

In the case of `O=C(CC(F)(F)F)N[C@H]1CC[C@H](CCN2CCN(c3ccc(F)cc3F)CC2)CC1` [Example 386, N-(4-{2-[4-(2,4-Difluorophenyl)piperazin-1-yl]ethyl}cyclohexyl)-3,3,3-trifluoropropanamide], the melting point is 184 °C.

`O=C(CC1CC=CC1)N[C@H]1CC[C@H](CCN2CCN(c3ccccc3F)CC2)CC1` [Example 387] showed a melting point of 188 °C.

On to `Cc1ccc(C(F)(F)F)cc1N1CCN(CC[C@H]2CC[C@H](NC(=O)CCCC#N)CC2)CC1` [Example 388, 4-Cyano-N-(4-{2-[4-(2-methyl-5-trifluoromethylphenyl)piperazin-1-yl]ethyl}cyclohexyl)butyramide], for which the melting point amounted to 153 °C.

Take `Cc1cc(N2CCN(CC[C@H]3CC[C@H](NC(=O)CC#N)CC3)CC2)c(Cl)cc1F` [Example 389, N-(4-{2-[4-(2-Chloro-4-fluoro-5-methylphenyl)piperazin-1-yl]ethyl}cyclohexyl)-2-cyanoacetamide]: the melting point came out at 177 °C.

On to `Cc1cc(N2CCN(CC[C@H]3CC[C@H](NC(=O)CCCC#N)CC3)CC2)c(Cl)cc1F` [Example 390], for which the melting point was 158 °C.

Take `COc1ccc(C)c(N2CCN(CC[C@H]3CC[C@H](NC(=O)CCCC#N)CC3)CC2)c1` [Example 391, 4-Cyano-N-(4-{2-[4-(5-methoxy-2-methylphenyl)piperazin-1-yl]ethyl}cyclohexyl)butanamide]: the melting point came to 170 °C.

`COc1cc(OC)cc(N2CCN(CC[C@H]3CC[C@H](NC(=O)CCCC#N)CC3)CC2)c1` [Example 392, 4-Cyano-N-(4-{2-[4-(3,5-dimethoxyphenyl)piperazin-1-yl]ethyl}cyclohexyl)butanamide] came in with a melting point of 147 °C.

As to `N#CCCCC(=O)N[C@H]1CC[C@H](CCN2CCN(c3cccc(Cl)c3C#N)CC2)CC1` [Example 393, N-(4-{2-[4-(3-Chloro-2-cyanophenyl)piperazin-1-yl]ethyl}cyclohexyl)-4-cyanobutanamide], the melting point came out at 189 °C.

In turn, `O=C(N[C@H]1CC[C@H](CCN2CCN(c3cccc(F)c3)CC2)CC1)C1=CCCCC1` [Example 394] had a melting point of 195 °C.

`N#CCCCC(=O)N[C@H]1CC[C@H](CCN2CCN(c3cccc(F)c3)CC2)CC1` [Example 395, 4-Cyano-N-(4-{2-[4-(3-fluorophenyl)piperazin-1-yl]ethyl}cyclohexyl)butanamide] yielded a melting point of 170 °C.

The molecule `O=C(COc1ccccc1)N[C@H]1CC[C@H](CCN2CCN(c3cccc(F)c3)CC2)CC1` [Example 396, N-(4-{2-[4-(3-Fluorophenyl)piperazin-1-yl]ethyl}cyclohexyl)-2-phenoxyacetamide] gave a melting point of 150 °C.

Molecule `NC(=O)CCC(=O)N[C@H]1CC[C@H](CCN2CCN(c3cccc(F)c3)CC2)CC1` [Example 397, N-(4-{2-[4-(3-Fluorophenyl)-piperazin-1-yl]ethyl}cyclohexyl)-succinamide] showed a melting point of 255 °C.

In turn, `NC(=O)CCC(=O)N[C@H]1CC[C@@H](CCN2CCN(c3cccc(F)c3)CC2)CC1` [Example 398, N-(4-{2-[4-(3-Fluorophenyl)-piperazin-1-yl]ethyl}cyclohexyl)-succinamide] showed a melting point of 169 °C.

In the case of `O=C(N[C@H]1CC[C@H](CCN2CCN(c3cccc(F)c3)CC2)CC1)C1=CCCC1` [Example 400, Cyclopent-1-enecarboxylic acid (4-{2-[4-(3-fluorophenyl)-piperazin-1-yl]ethyl}cyclohexyl) amide], the melting point stood at 202 °C.

`N#CCCCC(=O)N[C@H]1CC[C@H](CCN2CCN(c3ccc(F)cc3F)CC2)CC1` [Example 401, 4-Cyano-N-(4-{2-[4-(2,4-difluorophenyl)piperazin-1-yl]ethyl}cyclohexyl)butanamide] returned a melting point of 167 °C.

On to `N#CCCC(=O)N[C@H]1CC[C@H](CCN2CCN(c3ccc(F)cc3F)CC2)CC1` [Example 403, 3-Cyano-N-(4-{2-[4-(2,4-difluorophenyl)piperazin-1-yl]ethyl}cyclohexyl)propanamide], for which the melting point worked out at 165 °C.

`N#CCCCC(=O)N[C@H]1CC[C@H](CCN2CCN(c3cc(C(F)(F)F)ccc3Cl)CC2)CC1` [Example 404, N-(4-{2-[4-(2-Chloro-5-trifluoromethylphenyl)piperazin-1-yl]ethyl}cyclohexyl)-4-cyanobutanamide] showed a melting point of 168 °C.

In the case of `COc1ccc(C(F)(F)F)cc1N1CCN(CC[C@H]2CC[C@H](NC(=O)CCCC#N)CC2)CC1` [Example 405, 4-Cyano-N-(4-{2-[4-(2-methoxy-5-trifluoromethylphenyl)piperazin-1-yl]ethyl}cyclohexyl)butanamide], the melting point came to 136 °C.

For `O=C(N[C@H]1CC[C@H](CCN2CCN(c3cccc(F)c3)CC2)CC1)C1=Cc2ccccc2C1` [Example 407, 1H-Indene-2-carboxylic acid (4-{2-[4-(3-fluorophenyl)piperazin-1-yl]ethyl}cyclohexyl) amide], the melting point is 242 °C.

`O=C(N[C@H]1CC[C@H](CCN2CCN(c3cccc(F)c3)CC2)CC1)C1CC=CC1` [Example 408, Cyclopent-3-enecarboxylic acid (4-{2-[4-(3-fluorophenyl)-piperazin-1-yl]ethyl}cyclohexyl) amide] came in with a melting point of 215 °C.

On to `O=C(CC(F)(F)F)N[C@H]1CC[C@H](CCN2CCN(c3cccc(F)c3)CC2)CC1` [Example 409, 3,3,3-Trifluoro-N-(4-{2-[4-(3-fluorophenyl)piperazin-1-yl]ethyl}cyclohexyl)propanamide], for which the melting point turned out to be 195 °C.

The molecule `CCN(CC)CCC(=O)N[C@H]1CC[C@H](CCN2CCN(c3cccc(F)c3)CC2)CC1` [Example 411, 3-Diethylamino-N-(4-{2-[4-(3-fluorophenyl)piperazin-1-yl]ethyl}cyclohexyl)propanamide] had a melting point of 118 °C.

As to `N#CCCC(=O)N[C@H]1CC[C@H](CCN2CCN(c3cccc(F)c3)CC2)CC1` [Example 412, 3-Cyano-N-(4-{2-[4-(3-fluorophenyl)piperazin-1-yl]ethyl}cyclohexyl)propanamide], the melting point is 186 °C.

`Cc1ccc(C)c(N2CCN(CC[C@H]3CC[C@H](NC(=O)CCCC#N)CC3)CC2)c1` [Example 413, 4-Cyano-N-(4-{2-[4-(2,5-dimethylphenyl)piperazin-1-yl]ethyl}cyclohexyl)butanamide] returned a melting point of 158 °C.

Molecule `N#CCCCC(=O)N[C@H]1CC[C@H](CCN2CCN(c3cc(Cl)ccc3F)CC2)CC1` [Example 414, N-(4-{2-[4-(5-Chloro-2-fluorophenyl)piperazin-1-yl]ethyl}cyclohexyl)-4-cyanobutanamide] returned a melting point of 165 °C.

Molecule `COc1ccc(Cl)cc1N1CCN(CC[C@H]2CC[C@H](NC(=O)CCCC#N)CC2)CC1` [Example 415, N-(4-{2-[4-(5-Chloro-2-methoxyphenyl)piperazin-1-yl]ethyl}cyclohexyl)-4-cyanobutanamide] came in with a melting point of 152 °C.

For `COc1cccc(N2CCN(CC[C@H]3CC[C@H](NC(=O)CCCC#N)CC3)CC2)c1` [Example 416, 4-Cyano-N-(4-{2-[4-(3-methoxyphenyl)piperazin-1-yl]ethyl}cyclohexyl)butanamide], the melting point is 145 °C.

On to `COc1cccc(N2CCN(CC[C@H]3CC[C@H](NC(=O)C4=CCCC4)CC3)CC2)c1` [Example 417, Cyclopent-1-enecarboxylic acid (4-{2-[4-(3-methoxyphenyl)-piperazin-1-yl]ethyl}cyclohexyl) amide], for which the melting point came to 160 °C.

`COc1cccc(N2CCN(CC[C@H]3CC[C@H](NC(=O)CCC#N)CC3)CC2)c1` [Example 418, 3-Cyano-N-(4-{2-[4-(3-methoxyphenyl)piperazin-1-yl]ethyl}cyclohexyl)propanamide] had a melting point of 140 °C.

In the case of `COCCCC(=O)N[C@H]1CC[C@H](CCN2CCN(c3cccc(F)c3)CC2)CC1` [Example 419, N-(4-{2-[4-(3-Fluorophenyl)piperazin-1-yl]ethyl}cyclohexyl)-4-methoxybutanamide], the melting point was determined as 165 °C.

Molecule `O=C(CC1C=CCC1)N[C@H]1CC[C@H](CCN2CCN(c3cccc(F)c3)CC2)CC1` (stereo partly shown) [Example 420, 2-Cyclopent-2-enyl-N-(4-{2-[4-(3-fluorophenyl)piperazin-1-yl]ethyl}cyclohexyl)acetamide] yielded a melting point of 188 °C.

`COc1cc(N2CCN(CC[C@H]3CC[C@H](NC(=O)CCCC#N)CC3)CC2)cc(C(F)(F)F)c1` [Example 421, 4-Cyano-N-(4-{2-[4-(3-methoxy-5-trifluoromethylphenyl)piperazin-1-yl]ethyl}cyclohexyl)butanamide] displayed a melting point of 147 °C.

In turn, `CCc1ccccc1N1CCN(CC[C@H]2CC[C@H](NC(=O)CC(F)(F)F)CC2)CC1` [Example 422, N-(4-{2-[4-(2-Ethylphenyl)piperazin-1-yl]ethyl}cyclohexyl)-3,3,3-trifluoropropanamide] had a melting point of 135 °C.

`N#CCC(=O)N[C@H]1CC[C@H](CCN2CCN(c3cc(C(F)(F)F)c(Cl)cc3Cl)CC2)CC1` [Example 423, 2-Cyano-N-(4-{2-[4-(2,4-dichloro-5-trifluoromethylphenyl)piperazin-1-yl]ethyl}cyclohexyl)acetamide] registered a melting point of 193 °C.

The molecule `N#CCCCC(=O)N[C@H]1CC[C@H](CCN2CCN(c3cc(C(F)(F)F)c(Cl)cc3Cl)CC2)CC1` [Example 424, 4-Cyano-N-(4-{2-[4-(2,4-dichloro-5-trifluoromethylphenyl)piperazin-1-yl]ethyl}cyclohexyl)butanamide] had a melting point of 188 °C.

Molecule `CCc1cccc(N2CCN(CC[C@H]3CC[C@H](NC(=O)CS(C)(=O)=O)CC3)CC2)c1` [Example 425, N-(4-{2-[4-(3-Ethylphenyl)-piperazin-1-yl]ethyl}cyclohexyl)-2-methanesulfonylacetamide] displayed a melting point of 185 °C.
